Assay results taken from PubChem BioAssay (NCI).
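Cultured in 96-well plates, cells were exposed to test compound for 48 hours across five concentrations. TGI is the concentration that stops growth completely.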

Experiments:
Experiment in all cases: NCI tumour cell line growth inhibition, 48 h
[1] = tested on: NCI-H226 lung
[2] = tested on: HCC-2998 colon
[3] = tested on: IGROV1 ovarian
[4] = tested on: MALME-3M melanoma
[5] = tested on: TK-10 renal
[6] = tested on: A498 renal
[7] = tested on: HCT-15 colon
[8] = tested on: NCI-H460 lung
[9] = tested on: HCT-116 colon
[10] = tested on: UACC-257 melanoma
[11] = tested on: MOLT-4 leukemia
[12] = tested on: 786-0 renal
[13] = tested on: RPMI-8226 leukemia
[14] = tested on: ACHN renal
[15] = tested on: SN12C renal
[16] = tested on: LOX IMVI melanoma
[17] = tested on: SNB-19 CNS
[18] = tested on: HT29 colon
[19] = tested on: SK-MEL-5 melanoma
[20] = tested on: CAKI-1 renal
[21] = tested on: SK-OV-3 ovarian
[22] = tested on: KM12 colon
[23] = tested on: NCI-H522 lung
[24] = tested on: OVCAR-3 ovarian
[25] = tested on: OVCAR-4 ovarian
[26] = tested on: K-562 leukemia
[27] = tested on: SW-620 colon
[28] = tested on: MDA-MB-435
[29] = tested on: UACC-62 melanoma
[30] = tested on: DU-145 prostate
[31] = tested on: OVCAR-5 ovarian
[32] = tested on: MDA-MB-231 breast
[33] = tested on: SNB-75 CNS
[34] = tested on: HOP-62 NSCLC
[35] = tested on: COLO 205 colon
[36] = tested on: RXF 393 renal
[37] = tested on: HL-60(TB) leukemia
[38] = tested on: EKVX NSCLC
[39] = tested on: SF-295 CNS
[40] = tested on: T-47D breast
[41] = tested on: HOP-92 NSCLC
[42] = tested on: M14 melanoma
[43] = tested on: NCI-H23 lung
[44] = tested on: OVCAR-8 ovarian
[45] = tested on: MDA-N
[46] = tested on: UO-31 renal
[47] = tested on: SF-539 CNS
[48] = tested on: U251 CNS
[49] = tested on: MCF7 breast
[50] = tested on: CCRF-CEM leukemia
[51] = tested on: BT-549 breast
[52] = tested on: PC-3 prostate
[53] = tested on: SK-MEL-28 melanoma
[54] = tested on: SF-268 CNS
[55] = tested on: A549 NSCLC
[56] = tested on: NCI/ADR-RES ovarian
[57] = tested on: SK-MEL-2 melanoma

CCOC(=O)[C@@H]1C2C(=C[C@H]3[C@H]1C(=O)N1CCCC[C@H]31)CCCN2C(=O)OCc1ccccc1 (stereo partly specified)
TGI [1]: > 100 µM | TGI [2]: 53.1 µM | TGI [3]: > 100 µM | TGI [4]: > 100 µM | TGI [5]: > 100 µM | TGI [6]: 96 µM | TGI [7]: > 100 µM | TGI [8]: 82.6 µM | TGI [9]: > 100 µM | TGI [10]: > 100 µM | TGI [11]: 38.2 µM | TGI [12]: > 100 µM | TGI [13]: 46.4 µM | TGI [14]: > 100 µM | TGI [15]: > 100 µM | TGI [16]: > 100 µM | TGI [17]: > 100 µM | TGI [18]: > 100 µM | TGI [19]: > 100 µM | TGI [20]: > 100 µM | TGI [21]: > 100 µM | TGI [22]: > 100 µM | TGI [23]: 45.2 µM | TGI [24]: > 100 µM | TGI [25]: > 100 µM | TGI [26]: > 100 µM | TGI [27]: > 100 µM | TGI [28]: > 100 µM | TGI [29]: 39.2 µM | TGI [30]: > 100 µM | TGI [31]: > 100 µM | TGI [32]: > 100 µM | TGI [33]: > 100 µM | TGI [34]: > 100 µM | TGI [35]: 51.3 µM | TGI [36]: > 100 µM | TGI [37]: 45 µM | TGI [38]: > 100 µM | TGI [39]: > 100 µM | TGI [40]: > 100 µM | TGI [41]: > 100 µM | TGI [42]: > 100 µM | TGI [43]: 93.9 µM | TGI [44]: > 100 µM | TGI [45]: > 100 µM | TGI [46]: > 100 µM | TGI [47]: > 100 µM | TGI [48]: > 100 µM | TGI [49]: > 100 µM | TGI [50]: > 100 µM | TGI [51]: 62.5 µM | TGI [52]: 77.6 µM | TGI [53]: > 100 µM | TGI [54]: 60.3 µM | TGI [55]: > 100 µM | TGI [56]: 81.2 µM | TGI [57]: 56.8 µM

COc1nc(-c2cn(S(=O)(=O)c3ccc(C)cc3)c3ccc(Br)cc23)cc(C(F)(F)F)c1C#N
TGI [1]: 53.9 µM | TGI [2]: > 100 µM | TGI [3]: > 100 µM | TGI [4]: > 100 µM | TGI [6]: > 100 µM | TGI [7]: > 100 µM | TGI [8]: > 100 µM | TGI [10]: > 100 µM | TGI [11]: > 100 µM | TGI [13]: 41.8 µM | TGI [14]: > 100 µM | TGI [15]: > 100 µM | TGI [16]: > 100 µM | TGI [17]: 62.4 µM | TGI [18]: > 100 µM | TGI [19]: > 100 µM | TGI [20]: > 100 µM | TGI [21]: 59.5 µM | TGI [22]: > 100 µM | TGI [23]: > 100 µM | TGI [24]: 35.8 µM | TGI [25]: > 100 µM | TGI [26]: > 100 µM | TGI [27]: > 100 µM | TGI [28]: > 100 µM | TGI [29]: > 100 µM | TGI [30]: 31.3 µM | TGI [31]: > 100 µM | TGI [33]: 49.4 µM | TGI [35]: > 100 µM | TGI [36]: 58.8 µM | TGI [37]: > 100 µM | TGI [38]: > 100 µM | TGI [39]: > 100 µM | TGI [40]: 42.9 µM | TGI [41]: > 100 µM | TGI [43]: 44.9 µM | TGI [44]: 64.9 µM | TGI [45]: > 100 µM | TGI [46]: > 100 µM | TGI [47]: > 100 µM | TGI [48]: 35.2 µM | TGI [49]: > 100 µM | TGI [50]: > 100 µM | TGI [51]: 74.2 µM | TGI [52]: > 100 µM | TGI [53]: > 100 µM | TGI [54]: > 100 µM | TGI [55]: > 100 µM | TGI [56]: > 100 µM | TGI [57]: > 100 µM

CC(C(N)=O)N(C)C(=O)c1cc2ccccc2[n+](Cc2ccccc2)c1 (stereo unspecified)
TGI [1]: > 100 µM | TGI [2]: > 100 µM | TGI [3]: > 100 µM | TGI [4]: > 100 µM | TGI [5]: > 100 µM | TGI [6]: > 100 µM | TGI [7]: > 100 µM | TGI [8]: > 100 µM | TGI [9]: > 100 µM | TGI [10]: > 100 µM | TGI [11]: > 100 µM | TGI [12]: > 100 µM | TGI [13]: > 100 µM | TGI [14]: > 100 µM | TGI [15]: > 100 µM | TGI [17]: > 100 µM | TGI [18]: > 100 µM | TGI [19]: > 100 µM | TGI [20]: > 100 µM | TGI [22]: > 100 µM | TGI [23]: > 100 µM | TGI [24]: > 100 µM | TGI [25]: > 100 µM | TGI [26]: > 100 µM | TGI [27]: > 100 µM | TGI [28]: > 100 µM | TGI [29]: > 100 µM | TGI [30]: > 100 µM | TGI [31]: > 100 µM | TGI [32]: > 100 µM | TGI [33]: > 100 µM | TGI [35]: > 100 µM | TGI [36]: > 100 µM | TGI [37]: > 100 µM | TGI [39]: > 100 µM | TGI [40]: > 100 µM | TGI [41]: > 100 µM | TGI [42]: > 100 µM | TGI [43]: > 100 µM | TGI [44]: > 100 µM | TGI [45]: > 100 µM | TGI [46]: > 100 µM | TGI [47]: > 100 µM | TGI [48]: > 100 µM | TGI [49]: > 100 µM | TGI [50]: > 100 µM | TGI [51]: > 100 µM | TGI [52]: > 100 µM | TGI [53]: > 100 µM | TGI [54]: > 100 µM | TGI [55]: > 100 µM | TGI [56]: > 100 µM | TGI [57]: > 100 µM
